Larva weight and Survival rate data for one molecule are collected here from patent publication US20250221431A1, “METHOD FOR FEEDING BLACK SOLDIER FLY LARVAE WITH SELENIUM-RICH BACTERIA SOLUTION” (priority 2024, published 2025).

Series [1] relates to black soldier fly larvae. Particulars: Example 3, bean pulp/bran/grass meal 3:5:2 feed, 6-day-old larvae. As to the method:
(§1) After the feeding was terminated, the obtained larvae were screened, washed, wiped dry and weighed. The survival rate was calculated according to the number of live larvae. The larvae were subjected to starvation for 1 day, then dried and weighed. The residual feed was also dried and weighed. Thereby, bioconversion efficiency was calculated according to the following: bioconversion efficiency=dry weight of the larvae/(dry weight of the added feed−dry weight of the residual feed)×100%. Selenium content in the larva was determined after smashing the dry larvae according to “GB5009.93-2017 Determination of Selenium in Food”.
Effects of the selenium-rich bacteria solution on breeding of the selenium-rich black soldier flies were determined according to the indicators, i.e. growth performance of the larvae (survival rate, larva weight), bioconversion efficiency, and selenium content in the larva. The test method for each indicator was the same as that in Example 2.

The subject of series [2] is black soldier fly larvae. To be noted: Example 5, bean pulp/bran/grass meal 3:5:2 feed, 6-day-old larvae. As for the experimental part: as §1
The effects of the selenium-rich bacteria solution on breeding of the selenium-rich black soldier flies were determined according to the indicators, i.e. growth performance of the larvae (survival rate, larva weight), bioconversion efficiency, and selenium content in the larva. Test method for each indicator was the same as that in Example 2.

In series [3] the test system is black soldier fly larvae. To be noted: Example 4, bean pulp/bran/grass meal 3:5:2 feed, 6-day-old larvae. As for the experimental part:
as §1
Effects of the selenium-rich bacteria solution on breeding of the selenium-rich black soldier flies were determined according to the indicators, i.e. growth performance of the larvae (survival rate, larva weight), bioconversion efficiency, and selenium content in the larva. Test method for each indicator was the same as that in Example 2.

The subject of series [4] is black soldier fly larvae. Particulars: Example 2, chicken feed, 4-day-old larvae. As for the experimental part:
Step 3, 4-day-old black soldier fly larvae were selected to be fed; the selenium-rich bacteria solution was added to chicken feed to enable the chicken feed to have a total selenium content of 100, 200, 300 mg/kg (wet weight), respectively; a moisture content of the chicken feed was controlled to 60%, then the black soldier fly larvae were fed with the chicken feed at a ratio of dry chicken feed to larva being 116 g per 150 larvae (the ratio of dry feed to larva was 0.77) in conditions of 28° C.-30° C. feeding temperature and 60%-70% air humidity level, and feeding was terminated at the end of the fifth instar of the larvae.
The effects of the selenium-rich bacteria solution on breeding of the selenium-rich black soldier flies were determined according to the indicators, i.e. growth performance of the larvae (survival rate, larva weight), bioconversion efficiency, and selenium content in the larva.
as §1

Where [5] appears, read: selenium content added 100.00 mg/kg.
[6] abbreviates: selenium content added 200.00 mg/kg.
Setting [7] is: selenium content added 300.00 mg/kg.

Read-outs that look alike come from different tables or passages of the source.

For `O=[Se](O)O` [sodium selenite], the Larva weight with black soldier fly larvae [1] (setting [5]) amounted to 179.63 ± 9.99 mg per larva; with black soldier fly larvae [1] (setting [6]) it was 154.41 ± 10.66 mg per larva; in the series on black soldier fly larvae [1] (setting [7]), 119.53 ± 10.79 mg per larva; in the series on black soldier fly larvae [2] (setting [5]), 179.95 ± 9.51 mg per larva; with black soldier fly larvae [2] (setting [6]), 153.34 ± 10.87 mg per larva; in the series with black soldier fly larvae [2] (setting [7]) it was 119.64 ± 5.54 mg per larva. Moreover, the Larva weight came out at 183.72 ± 9.71 mg per larva in the series with black soldier fly larvae [3] (setting [5]); 156.56 ± 11.10 mg per larva with black soldier fly larvae [3] (setting [6]); 122.15 ± 5.66 mg per larva in the series with black soldier fly larvae [3] (setting [7]); 212.39 ± 9.63 mg per larva in the series with black soldier fly larvae [4] (setting [5]); 214.37 ± 7.56 mg per larva in the series with black soldier fly larvae [4] (setting [6]); 210.57 ± 3.50 mg per larva in the series on black soldier fly larvae [4] (setting [7]). The Survival rate in the series on black soldier fly larvae [1] (setting [5]) was 85.04 ± 8.77%; in the series with black soldier fly larvae [1] (setting [6]), 84.51 ± 5.06%; with black soldier fly larvae [1] (setting [7]), 82.22 ± 8.77%; in the series with black soldier fly larvae [2] (setting [5]), 85.33 ± 6.40%; in the series on black soldier fly larvae [2] (setting [6]), 87.43 ± 3.33%; with black soldier fly larvae [2] (setting [7]) it was 81.46 ± 0.96%. Moreover, the Survival rate came to 87.12 ± 6.53% in the series with black soldier fly larvae [3] (setting [5]); 89.27 ± 3.40% in the series on black soldier fly larvae [3] (setting [6]); 83.17 ± 0.97% in the series with black soldier fly larvae [3] (setting [7]); 94.22 ± 1.35% with black soldier fly larvae [4] (setting [6]); 91.33 ± 4.27% with black soldier fly larvae [4] (setting [7]).
